Measured values: patent US20090264401A1, “SUBSTITUTED PYRIMIDIN-5-CARBOXAMIDES 281” (AstraZeneca AB, priority 2008, published 2009)

molecular target: T1, human 11βHSD1 enzyme (Homo sapiens, UniProt P28845); experiment: 11βHSD1 cortisone to cortisol conversion, competitive HTRF assay; assay type: biochemical; conditions: human 11-βHSD; test concentration of 30 μM of compound
T1 construct: baculovirus expressed N terminal 6-His tagged full length human 11βHSD1 enzyme; 6-His (N); made in house
Procedure: The evaluation of compounds described herein was carried out using a baculovirus expressed N terminal 6-His tagged full length human 11βHSD1 enzyme(*1). The enzyme was purified from a detergent solubilised cell lysate, using a copper chelate column. Inhibitors of 11βHSD1 reduce the conversion of cortisone to cortisol, which is identified by an increase in signal, in the above assay.
Compounds to be tested were dissolved in dimethyl sulphoxide (DMSO) to 10 mM and diluted further in assay buffer containing 1% DMSO to 10 fold the final assay concentration. Diluted compounds were then plated into black 384 well plates (Matrix, Hudson N.H., USA).
Fluorescence at 665 nm and 620 nm was measured and the 665 nm:620 nm ratio calculated using an Envision plate reader.

T1 sequence (P28845 whole entry): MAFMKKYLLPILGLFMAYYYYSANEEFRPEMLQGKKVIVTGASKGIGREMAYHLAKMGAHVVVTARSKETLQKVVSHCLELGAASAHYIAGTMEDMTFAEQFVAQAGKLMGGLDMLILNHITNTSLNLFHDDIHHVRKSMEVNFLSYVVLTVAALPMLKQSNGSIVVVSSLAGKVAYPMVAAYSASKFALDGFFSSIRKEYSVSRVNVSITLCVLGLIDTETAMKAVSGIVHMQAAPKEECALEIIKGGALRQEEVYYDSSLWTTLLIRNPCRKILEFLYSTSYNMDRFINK

Row | Compound | inhibition at 30 µM
1 | O=C(N[C@H]1C2CC3CC1C[C@@](O)(C3)C2)c1cnc(N2CCOCC2CO)nc1C1CCC1 (stereo partly drawn) [Example 90, 4-cyclobutyl-N-[(2r,5s)-5-hydroxyadamantan-2-yl]-2-[3-(hydroxymethyl)morpholin-4-yl]pyrimidine-5-carboxamide] | 100%
2 | O=C(N[C@H]1C2CC3CC1C[C@@](O)(C3)C2)c1cnc(N2CCC2)nc1C1CCC1 [Example 85, 2-Azetidin-1-yl-4-cyclobutyl-N-[(2r,5s)-5-hydroxyadamantan-2-yl]pyrimidine-5-carboxamide] | 88.8%
3 | O=C(N[C@H]1C2CC3CC1C[C@@](O)(C3)C2)c1cnc(N2CCC2)nc1C1CCCC1 [Example 131, 2-(azetidin-1-yl)-4-cyclopentyl-N-[(2r,5s)-5-hydroxyadamantan-2-yl]pyrimidine-5-carboxamide] | 101%
4 | O=C(N[C@H]1C2CC3CC1C[C@@](O)(C3)C2)c1cnc(N2CCSCC2)nc1C1CCC1 [Example 41, 4-Cyclobutyl-N-[(2r,5s)-5-hydroxyadamantan-2-yl]-2-thiomorpholin-4-ylpyrimidine-5-carboxamide] | 94%
5 | CCCSc1ncc(C(=O)N[C@H]2C3CC4CC2C[C@@](O)(C4)C3)c(N2CCN(C(C)=O)CC2)n1 [Example 25, 4-(4-Acetylpiperazin-1-yl)-N-[(2r,5 s)-5-hydroxyadamantan-2-yl]-2-propylsulfanylpyrimidine-5-carboxamide] | 101%
6 | CCCSc1ncc(C(=O)N[C@H]2C3CC4CC2C[C@@](O)(C4)C3)c(NC)n1 [Example 22, N-[(2r,5s)-5-hydroxyadamantan-2-yl]-4-methylamino-2-propylsulfanylpyrimidine-5-carboxamide] | 89.5%
7 | CC(C)c1ncc(C(=O)N[C@H]2C3CC4CC2C[C@@](O)(C4)C3)c(C2CCCC2)n1 [Example 150, 4-Cyclopentyl-N-[(2r,5s)-5-hydroxyadamantan-2-yl]-2-propan-2-ylpyrimidine-5-carboxamide] | 96%
8 | CS(=O)(=O)N1CCN(c2ncc(C(=O)N[C@H]3C4CC5CC3C[C@@](O)(C5)C4)c(C3CC3)n2)CC1 [Example 70, 4-cyclopropyl-N-[(2r,5s)-5-hydroxyadamantan-2-yl]-2-(4-methylsulfonylpiperazin-1-yl)pyrimidine-5-carboxamide] | 98%
9 | O=C(N[C@H]1C2CC3CC1C[C@@](O)(C3)C2)c1cnc(N2CC[S+]([O-])CC2)nc1C1CCCC1 [Example 115, 4-Cyclopentyl-N-[(2r,5 s)-5-hydroxyadamantan-2-yl]-2-(1-oxo-1,4-thiazinan-4-yl)pyrimidine-5-carboxamide] | 93.4%
10 | O=C(N[C@H]1C2CC3CC1C[C@@](O)(C3)C2)c1cnc(NC2CCCC2)nc1C1CC1 [Example 57, 2-(cyclopentylamino)-4-cyclopropyl-N-[(2r,5s)-5-hydroxyadamantan-2-yl]pyrimidine-5-carboxamide] | 102%
11 | CC(=O)N1CCN(c2ncc(C(=O)N[C@H]3C4CC5CC3C[C@@](O)(C5)C4)c(C3CCCC3)n2)CC1 [Example 126, 2-(4-acetylpiperazin-1-yl)-4-cyclopentyl-N-[(2r,5s)-5-hydroxyadamantan-2-yl]pyrimidine-5-carboxamide] | 96.6%
12 | CNc1ncc(C(=O)N[C@H]2C3CC4CC2C[C@@](O)(C4)C3)c(C2CCCO2)n1 (stereo partly drawn) [Example 161, N-[(2r,5s)-5-hydroxyadamantan-2-yl]-2-methylamino-4-(oxolan-2-yl)pyrimidine-5-carboxamide] | 105%
13 | Cc1ncc(C(=O)NC2C3CC4CC(C3)CC2C4)c(C2CC2)n1 (stereo not drawn) [Example 12, N-(2-adamantyl)-4-cyclopropyl-2-methyl-pyrimidine-5-carboxamide] | 97.3%
14 | O=C(N[C@H]1C2CC3CC1C[C@@](O)(C3)C2)c1cnc(N2CC[S+]([O-])CC2)nc1C1CC1 [Example 36, 4-Cyclopropyl-N-[(2r,5s)-5-hydroxyadamantan-2-yl]-2-(1-oxo-1,4-thiazinan-4-yl)pyrimidine-5-carboxamide] | 99.5%

same assay, conditions: recombinant N terminal 6-His tagged full length human 11βHSD1; cortisone 160 nM; 25 minutes at 37° C.

Row | Compound | IC50
15 | Cc1ncc(C(=O)NC2C3CC4CC(C3)CC2C4)c(C2CC2)n1 (stereo not drawn) [Example 12, N-(2-adamantyl)-4-cyclopropyl-2-methyl-pyrimidine-5-carboxamide] | 45 nM
